According to US20240245711A1, “A 19-NOR C3,3-DISUBSTITUTED C21-N-PYRAZOLYL STEROID FOR THE TREATMENT OF MAJOR DEPRESSIVE DISORDER” (Sage Therapeutics, Inc., priority 2021, published 2024):
“And” between values parts separate entries of the source, which are not always exact repeats. Equal values may be shown once.

Test system: adult subjects with Major Depressive Disorder
Assay: Phase 3 open-label 1-year study: need for re-treatment (number of and time to re-treatments)
Assay type: in vivo, human
From the text: Secondary Objective: To assess the need for re-treatment with Compound (1) following initial treatment in adults with MDD currently experiencing an MDE over a 1-year period, and to assess the response of initial treatment and re-treatment(s) with Compound (1) following an initial 2-week treatment period in adults with MDD currently experiencing an MDE over a 1-year period.
Secondary Endpoints: The need for re-treatment with Compound (1) as assessed by: time to first re-treatment (Kaplan-Meier curves), number of subjects achieving the requirements for re-treatment, number of re-treatment cycles for each subject, the response of initial treatment and/or re-treatment as assessed by: change from baseline in the 17-item Hamilton Rating Scale for Depression (HAM-D) total score at the end of each 14-day treatment (initial and/or re-treatment) period, HAM-D response at the end of each 14-day treatment (initial and/or re-treatment) period, defined as a ≥50% reduction in HAM-D score from baseline, HAM-D remission at the end of each 14-day treatment (initial and/or re-treatment) period, defined as HAM-D total score≤7, Clinical Global Impression-Improvement (CGI-I) response, defined as “much improved” or “very much improved”, at the end of each 14-day treatment (initial and/or re-treatment) period, change from baseline in Clinical Global Impression-Severity (CGI-S) score at the end of each 14-day treatment (initial and/or re-treatment) period.
Subjects who continued in the Observation Period were monitored remotely via PHQ-9 assessment every two weeks. If PHQ-9 score was >=10 at any assessment, PHQ-9 assessment was switch to every week until the score came down below 10 or the subject was dosed with Compound (1) in a subsequent cycle, whichever was earlier. A subject was to come back to the site for HAM-D assessment within a week of PHQ-9 score >=10; if the HAM-D total score >=20 and at least 56 days had elapsed since the last dose of Compound (1), another dosing cycle of Compound (1) were to start. If any of these criteria were not met, the subject couldn't be treated with Compound (1) at that time. Without the trigger of PHQ-9>=10 the subject was to have a clinic visit every 8 weeks. A subject could have at most 5 cycles of treatment within a year. FIG. 2 is a depiction of the eligibility criteria of the study.
The cohorts pertaining to the different doses that the subjects received were defined as following: • 50 mg cohort: This cohort includes subjects who have initiated treatment with 50 mg and received re-treatment with 50 mg only. • 30 mg cohort: This cohort includes subjects who have initiated treatment with 30 mg regardless of the dose they have received in re-treatments. • Low dose cohort: This cohort includes subjects who have initiated treatment with 30 mg and received re-treatment with 30 mg only. • Dose switch cohort: This cohort includes subjects who have received initial treatment with 30 mg and at least one subsequent re-treatment with 50 mg. • Study Period X: starts on the date of the first dose of Compound (1) in cycle X and goes up to one day prior to the first dose of the next cycle. In some embodiments, X is any number from 1 to 5. • Treatment Period X: starts on the date of the first dose of Compound (1) in cycle X and goes up to one day after the last dose in cycle X. In some embodiments, X is any number from 1 to 5. • Treatment Cycle X: starts on the date of the first dose of Compound (1) in cycle X and goes up to 14 days after the last dose in cycle X. The treatment cycles may be denoted as C1-C5. • Observation period X: starts the day after Treatment Cycle X ends and goes up to one day prior to the start of next treatment cycle. In some embodiments, X is any number from 1 to 5.
Analysis Sets: The safety set was defined as all subjects who were administered study drug. The period-specific safety set includes subjects in the safety set who were administered study drug in the corresponding treatment cycle. […]

[1] = 50 mg Cohort (N = 146), Examples 2-3 cut-off
[2] = 50 mg Cohort FAS (146), one-year follow-up (Example 4)
[3] = 50 mg Cohort, Examples 2-3 cut-off
[4] = Cycle 3, 50 mg Cohort (FAS), 1 subject

Compound: C[C@@]1(O)CC[C@H]2[C@H](CC[C@@H]3[C@@H]2CC[C@]2(C)[C@@H](C(=O)Cn4cc(C#N)cn4)CC[C@@H]32)C1 [Compound (1), 1-(2-((3R,5R,8R,9R,10S,13S,14S,17S)-3-hydroxy-3,13-dimethylhexadecahydro-1H-cyclopenta[a]phenanthren-17-yl)-2-oxoethyl)-1H-pyrazole-4-carbonitrile]
- Average (range) number of re-treatments per subject over 1-year follow-up (30 mg Cohort): 1.2 (0-4) and 1.2
- Average total number of treatments per subject (30 mg Cohort): 2.2
- Dosed in at least 1 re-treatment cycle, % of eligible (30 mg Cohort (472 eligible)): 279 (59.1%)
- Qualified to be retreated in at least 1 more cycle (HAM-D total score >= 20), % of eligible (30 mg Cohort (472 eligible)): 305 (64.6%)
- FAS Subjects Dosed in C2, n (%) of FAS (30 mg Cohort Overall): 279 (57.1%)
- FAS Subjects dosed in C3, n (%) of FAS (30 mg Cohort Overall): 154 (31.5%)
- FAS Subjects dosed in C4, n (%) of FAS (30 mg Cohort Overall): 96 (19.6%)
- FAS Subjects dosed in C5, n (%) of FAS (30 mg Cohort Overall): 43 (8.8%)
- Subjects with No re-treatment (Cycle 1), n (%) of FAS (30 mg cohort (N = 489)): 210 (42.9%)
- Subjects with Only 1 re-treatment (Cycle 2), n (%) of FAS (30 mg cohort (N = 489)): 125 (25.6%)
- Subjects with Only 2 re-treatment (Cycle 3), n (%) of FAS (30 mg cohort (N = 489)): 58 (11.9%)
- Subjects with Only 3 re-treatment (Cycle 4), n (%) of FAS (30 mg cohort (N = 489)): 53 (10.8%)
- Subjects with Only 4 re-treatment (Cycle 5), n (%) of FAS (30 mg cohort (N = 489)): 43 (8.8%) and 43 8.8%)
- Dosed in at least 1 re-treatment cycle, % of eligible (50 mg Cohort (122 eligible)): 26 (21.3%)
- Qualified to be retreated in at least 1 more cycle (HAM-D total score >= 20), % of eligible (50 mg Cohort (122 eligible)): 36 (29.5%)
- Subjects with No re-treatment (Cycle 1), n (%) of FAS [1]: 120 (82.2%)
- Subjects with Only 1 re-treatment (Cycle 2), n (%) of FAS [1]: 25 (17.1%)
- Subjects with Only 2 re-treatment (Cycle 3), n (%) of FAS [1]: 1 (0.7%)
- Subjects who received 1 treatment course in total [2]: 54.8%
- Subjects who received 2 treatment courses in total [2]: 24.7%
- Subjects who received 3 treatment courses in total [2]: 10.3%
- Subjects who received 4 treatment courses in total [2]: 6.8%
- Subjects who received 5 treatment courses in total [2]: 3.4%
- Subjects who received at most one additional treatment cycle [2]: 79.5%
- FAS Subjects Dosed in C2, n (%) of FAS [3]: 26 (17.8%)
- FAS Subjects dosed in C3, n (%) of FAS [3]: 1 (0.7%)
- Proportion with zero or at most 1 additional treatment cycle, by use of antidepressant therapy at baseline (50 mg Cohort, one-year follow-up (Example 4)): similar
- n/N: FAS subjects eligible and dosed in Cycle X / eligible for dosing in Cycle X (Cycle 2, 50 mg Cohort): 26/122
- Time to re-treatment since last dose in previous cycle, Mean (SD) (Cycle 2, 50 mg Cohort (FAS)): 70.5 (18.52) Days
- Time to re-treatment since last dose in previous cycle, Median (Cycle 2, 50 mg Cohort (FAS)): 62.5 days
- Time to re-treatment since last dose in previous cycle, Min - Max (Cycle 2, 50 mg Cohort (FAS)): 58 to 122 days
- n/N: FAS subjects eligible and dosed in Cycle X / eligible for dosing in Cycle X (Cycle 2, Dose Switch): 80/80
- Time to re-treatment since last dose in previous cycle, Mean (SD) (Cycle 2, Dose Switch (FAS)): 116.5 (70.26) Days
- Time to re-treatment since last dose in previous cycle, Median (Cycle 2, Dose Switch (FAS)): 91 days
- Time to re-treatment since last dose in previous cycle, Min - Max (Cycle 2, Dose Switch (FAS)): 58 to 318 days
- n/N: FAS subjects eligible and dosed in Cycle X / eligible for dosing in Cycle X (Cycle 2, Low Dose): 199/392
- Time to re-treatment since last dose in previous cycle, Mean (SD) (Cycle 2, Low Dose (FAS)): 99.5 (52.15) Days
- Time to re-treatment since last dose in previous cycle, Median (Cycle 2, Low Dose (FAS)): 78 days
- Time to re-treatment since last dose in previous cycle, Min - Max (Cycle 2, Low Dose (FAS)): 58 to 297 days
- n/N: FAS subjects eligible and dosed in Cycle X / eligible for dosing in Cycle X (Cycle 3, 50 mg Cohort): 1/4
- Time to re-treatment since last dose in previous cycle, Mean (SD) [4]: 58 (NA) Days and 58.0 (NA), 58.0, Days
- Time to re-treatment since last dose in previous cycle, Median [4]: 58 Days and 58.0 (NA), 58.0, Days
- Time to re-treatment since last dose in previous cycle, Min - Max [4]: 58-58 Days
- n/N: FAS subjects eligible and dosed in Cycle X / eligible for dosing in Cycle X (Cycle 3, Dose Switch): 71/76
- Time to re-treatment since last dose in previous cycle, Mean (SD) (Cycle 3, Dose Switch (FAS)): 92.5 (34.44) Days
- Time to re-treatment since last dose in previous cycle, Median (Cycle 3, Dose Switch (FAS)): 79 days
- Time to re-treatment since last dose in previous cycle, Min - Max (Cycle 3, Dose Switch (FAS)): 58 to 214 days
- n/N: FAS subjects eligible and dosed in Cycle X / eligible for dosing in Cycle X (Cycle 3, Low Dose): 83/166
- Time to re-treatment since last dose in previous cycle, Mean (SD) (Cycle 3, Low Dose (FAS)): 87.2 (34.97) Days
- Time to re-treatment since last dose in previous cycle, Median (Cycle 3, Low Dose (FAS)): 72 days
- Time to re-treatment since last dose in previous cycle, Min - Max (Cycle 3, Low Dose (FAS)): 52 to 217 days
- n/N: FAS subjects eligible and dosed in Cycle X / eligible for dosing in Cycle X (Cycle 4, Dose Switch): 53/63
- Time to re-treatment since last dose in previous cycle, Mean (SD) (Cycle 4, Dose Switch (FAS)): 69.9 (13.40) Days
- Time to re-treatment since last dose in previous cycle, Median (Cycle 4, Dose Switch (FAS)): 66 days
- Time to re-treatment since last dose in previous cycle, Min - Max (Cycle 4, Dose Switch (FAS)): 57 to 120 days
- n/N: FAS subjects eligible and dosed in Cycle X / eligible for dosing in Cycle X (Cycle 4, Low Dose): 43/74
- Time to re-treatment since last dose in previous cycle, Mean (SD) (Cycle 4, Low Dose (FAS)): 72.1 (17.67) Days
- Time to re-treatment since last dose in previous cycle, Median (Cycle 4, Low Dose (FAS)): 65 days
- Time to re-treatment since last dose in previous cycle, Min - Max (Cycle 4, Low Dose (FAS)): 57 to 113 days
- n/N: FAS subjects eligible and dosed in Cycle X / eligible for dosing in Cycle X (Cycle 5, Dose Switch): 23/45
- Time to re-treatment since last dose in previous cycle, Mean (SD) (Cycle 5, Dose Switch (FAS)): 61.4 (6.24) Days
